Results reported in US9056851B2, “Thiolactone antibiotics” (priority 2011, dated 2015).

These compounds were tested against C171Q KasA acyl-enzyme mimic (Mycobacterium tuberculosis, UniProt P9WQD9, C171Q).
Format: binding, M. tuberculosis

| SMILES | Slow Onset | Slow or Rapid onset of binding to C171QKasA (words in Ki* column) |
| --- | --- | --- |
| C=C/C(C)=C/[C@@]1(C)SC(=O)C(CCCCc2ccc(Cl)cc2)=C1O [TLM7] | No | Rapid |
| C=C/C(C)=C/[C@@]1(C)SC(=O)C(CCCCc2ccc(-c3ccccc3)cc2)=C1O [TLM9] | No | Rapid |
| C=C/C(C)=C/[C@@]1(C)SC(=O)C=C1O [TLM2, 5R-(+)-3-Demethylthiolactomycin] | No | Rapid |
| C=C/C(C)=C/[C@@]1(C)SC(=O)C(C(=O)CCC)=C1O [TLM38] | No | – |
| C=C/C(C)=C/[C@@]1(C)SC(=O)C(CCC)=C1O [TLM4, 5R-(+)-3-Propylthiolactomycin] | Yes | Slow, |
| C=C/C(C)=C/[C@@]1(C)SC(=O)C(C(C)=O)=C1O [TLM35] | Yes | – |
| C=C/C(C)=C/[C@@]1(C)SC(=O)C(C(=O)C(F)(F)F)=C1O [TLM36] | Yes | – |
| C=C/C(C)=C/[C@@]1(C)SC(=O)C(C(=O)OC)=C1O [TLM37] | No | – |
| C=C/C(C)=C/[C@@]1(C)SC(=O)C(CCCN=[N+]=[N-])=C1O [TLM10] | Yes | Slow Onset |
| C=C/C(C)=C/[C@@]1(C)SC(=O)C(CCCCc2ccc(Br)cc2)=C1O [TLM8] | No | Rapid |
| C=C/C(C)=C/[C@@]1(C)SC(=O)C(CC)=C1O [TLM3, 5R-(+)-3-Ethylthiolactomycin] | Yes | Slow, |
| C=C/C(C)=C/[C@@]1(C)SC(=O)C(CCc2ccc(Cl)cc2)=C1O [TLM31] | No | – |
| C=C/C(C)=C/[C@@]1(C)SC(=O)C(CCCCN=[N+]=[N-])=C1O [TLM32] | Yes | – |
| C=C/C(C)=C/[C@@]1(C)SC(=O)C(CCCCn2cc(CNC(=O)[C@H](O)C(C)(C)CO)nn2)=C1O [TLM33] | No | – |
| C=C/C(C)=C/[C@@]1(C)SC(=O)C(C(=O)CCCCc2ccc(-c3ccccc3)cc2)=C1O [TLM45] | No | – |
| C=C/C(C)=C/[C@@]1(C)SC(=O)C=C1OCC(=O)NCCN=[N+]=[N-] [TLM40] | No | – |
| C=C/C(C)=C/[C@@]1(C)SC(=O)C(C)=C1O [TLM, 5R-(+)-Thiolactomycin] | Yes | Slow, |
| C=C/C(C)=C/[C@@]1(C)SC(=O)C(C(=O)c2ccccc2C(=O)O)=C1O [TLM39] | No | – |
| C=C/C(C)=C/[C@@]1(C)SC(=O)C(CCc2ccc(C)cc2)=C1O [TLM5] | No | Rapid |
| C=C/C(C)=C/[C@@]1(C)SC(=O)C(CCCCc2ccc(F)cc2)=C1O [TLM6] | No | Rapid |
| C=C/C(C)=C/[C@@]1(C)SC(=O)C(C(=O)CCCCCCCCCCCCCCC)=C1O [TLM43] | No | – |
| C=C/C(C)=C/[C@@]1(C)SC(=O)C(CCCCn2cc(CNC(=O)c3ccc(NS(=O)(=O)c4ccc(F)cc4)cc3)nn2)=C1O [TLM34] | No | – |
